Reference: patent publication US12358899B2, “Thyroid hormone receptor agonists and uses thereof” (XIZANG HAISCO PHARMACEUTICAL CO., LTD., priority 2018, dated 2025)

Test system: C57BL/6cnc mice
Assay: Synergistic effect of Example 7 with other NASH compounds in mouse model
Type: in vivo
Details: NASH mice, single agents, 2-week treatment
Description: There are other candidates being developped for inflammation, metabolism syndromes or NASH These include glucagon-like peptide-1 (GLP-1) receptor agonist liraglutide, peroxisome proliferator-activated receptor-α and -β (PPAR-α/δ) agonist elafibranor, and nuclear erythroid 2-related factor 2 (NRF2) activator bardoxolone methyl (CDDO-Me). These candidates target different proteins and pathways, therefore have different mechanisms of action related to steatosis, inflammation, and fibrosis.
C57BL/6cnc mice were fed with high-fat diet containing 60 kacl % fat and 0.10% methionine (no added choline) (Research Diets, A06071302) for 12 weeks to induce NASH model. After 12-week diet induction, the mice had increased plasma levels of TC, LDL-c, ALT, and fibrosis markers. […] An Example 7 alone group and a vehicle group were also set up for controls. […] After 2-week treatment, serum biochemistry was measured; liver was collected to measure liver TC and TG. Livers were punched in 2 mm diameter and fixed, sectioned and stained with Sirius Red, and the fibrosis and steatosis were scored.

CSc1ccc(C(=O)/C=C/c2cc(C)c(OC(C)(C)C(=O)O)c(C)c2)cc1 [Elafibranor, reference compound]
liver weight, liver TC, liver TG, plasma TC, LDL-c, ALT, fibrosis, steatosis: reduced all or some of these parameters
